Experimental data: patent US20080131366A1, “Folate Receptor Gene Modulation For Cancer Diagnosis And Therapy” (priority 2003, published 2008)

Experiments:
GRE2e1b promoter = system: GRE2e1b promoter
Method: (§1) HeLa cells, which express endogenous GR, were transfected with FR-α promoter-luciferase or GRE2e1b promoter luciferase. […] FIG. 17B: Time course of Dex action. Promoter activity was measured in terms of luciferase activity at the different time points.

FR-α promoter [1] = assay: FR-α promoter-luciferase in HeLa cells (endogenous GR); type: cell-based
Method: as §1

FR-α [2] = assay: Endogenous FR-α in AR-transfected HeLa cells, flow cytometry with fluorescein-folic acid conjugate; type: cell-based
Method: Where indicated, cells were transfected with AR expression plasmid and the testosterone (10 nM) and TSA (50 mg/ml) treatments were for 3 days post-transfection.

FR-α promoter [3] = assay: FR-α promoter-luciferase in T47D cells (endogenous PR and GR); type: cell-based; conditions: TSA 25 ng/ml with R5020
Method: T47D cells were transfected with FR-α promoter-luciferase and where indicated, co-transfected with SRC1 expression plasmid. R5020 (10 nM) and TSA (25 mg/ml) treatments were initiated at the time of transfection and lasted 3 days at the end of which the cells were harvested for luciferase assays.

FR-α promoter [4] = assay: FR-α promoter-luciferase reporter in IGROV-1 cells co-transfected with ER; type: cell-based; conditions: IGROV-1, ER co-transfected, 1 nM E2, pharmacologic concentrations of antiestrogen
Method: (§2) (FIG. 1A) HeLa and IGROV-1 cells (10^6) were co-transfected with the FR-α promoter-luciferase construct (400 ng) and either an ER expression plasmid (25 ng) or with the plasmid vector alone (25 ng) in the presence of 1 nM E2. Antiestrogens were introduced at the time of transfection. […] (FIG. 1B) The FR-α promoter-luciferase construct (400 ng) was transfected into BG-1 cells (10^6) in the absence or in the presence of E2 (1 nM) and antiestrogens were introduced at the time of transfection. (FIG. 1C) HeLa cells (10^6) were transfected with the thymidine kinase (TK)-promoter-luciferase (200 ng) or Rous Sarcoma Virus (RSV)-promoter-luciferase (200 ng) constructs and were co-transfected with either ER plasmid (25 ng) or with the plasmid vector (25 ng). Antiestrogens were introduced at the time of transfection.
Cell Culture and Transfection: HeLa I-1 cells were kindly provided by Dr. S. T. Rosen. BG-1 cells were provided by Dr. Randolf Ruch. […] Uniformity of transfection was routinely monitored through cotransfections with the β-galactosidase expression plasmid, pSV-β-gal (Promega). β-galactosidase activity was measured colorimetrically using the assay system available from Promega. […]

FR-α [5] = assay: Induction of endogenous FR-α in ER+/FRα-negative cells; type: cell-based; conditions: ER+/FRα-negative cells including BG-1; results not shown
Text: It appears that ER will only modulate the endogenous FR-α gene in cells in which the gene is transcriptionally active.

FR-α promoter [6] = assay: FR-α promoter-luciferase reporter in HeLa cells co-transfected with ER; type: cell-based
Method: as §2
FIGS. 2A and 2B are graphs showing an estrogen and antiestrogen dose response of a control ERE-driven promoter and the FR-α promoter in HeLa cells. The Y-axis in FIG. 2A indicates promoter activation, whereas the Y-axis in FIG. 2B indicates promoter repression. The cells (10^6) were transfected with either ERE2E1b-luciferase (100 ng) (FIG. 2A) or FR-α promoter-luciferase (100 ng) (FIG. 2B) and co-transfected with the ER expression plasmid (50 ng) where indicated. Cells that were not co-transfected with the ER-plasmid were co-transfected instead with the plasmid vector alone (50 ng).
FIGS. 3A and 3B are graphs showing a time course of response of the control ERE2E1b-luciferase (FIG. 3A) and FR-α promoter luciferase (FIG. 3B) to antiestrogens in HeLa cells. The cells (10^6) were transfected with the indicated promoter-luciferase construct (100 ng) and co-transfected with ER expression plasmid (50 ng) in the presence of E2 (1 nM).
In one set of experiments, the antiestrogens were removed after a 6 h treatment.
Cell Culture and Transfection: HeLa I-1 cells were kindly provided by Dr. S. T. Rosen. BG-1 cells were provided by Dr. Randolf Ruch. HeLa (American Type Tissue Collection) and HeLa I-1 cells were routinely cultured in phenol red-free MEM supplemented with fetal bovine serum (FBS) (10%), penicillin (100 units/mL), streptomycin ([…]), and L-glutamine (2 mM). BG-1 and IGROV1 (American Type Tissue Collection) cells were routinely cultured in DMEM and supplemented as above. Treated or transfected cells were grown in phenol-red free media supplemented with charcoal-stripped FBS (5% v/v), penicillin (100 units/mL), streptomycin ([…]), L-glutamine (2 mM), insulin (2 μg/mL), and transferrin (40 μg/mL) unless otherwise noted. In addition, treated HeLa I-1 cells were grown in culture with 50 μg/mL G418. […] Uniformity of transfection was routinely monitored through cotransfections with the β-galactosidase expression plasmid, pSV-β-gal (Promega). β-galactosidase activity was measured colorimetrically using the assay system available from Promega.
Luciferase Assay: Forty-eight hours after transfection, the cells were washed once with PBS (10 mM sodium phosphate, pH 7.5, 150 mM NaCl) and harvested in 400 μL of reporter lysis buffer provided with the luciferase assay system (Promega). The samples were centrifuged at 12,000 g for 2 min at room temperature. The supernatant was assayed for luciferase activity in a luminometer (Lumat LB9501, Berthold) using the luciferase substrate from Promega.

FR-α [7] = assay: FR-α in HeLa cell tumor xenografts after tamoxifen, western blot; type: in vivo, mouse; conditions: ER+ HeLa cell tumors, tamoxifen 1 mg/kg sc daily
FR-α promoter [8] = assay: FR-α promoter-luciferase in HeLa cells transfected with AR; type: cell-based; conditions: 10 nM
Method: (§3) FIGS. 10A, 10B, 10C and 10D are graphs showing the enhancement of FR-α promoter activity by testosterone/AR. In HeLa cells, AR was introduced by transiently transfecting an AR expression plasmid. FR-α promoter-luciferase, PSA-promoter-luciferase, or promoterless PGL3 basic-luciferase was co-transfected. Testosterone was introduced at the time of transfection (10 nM in FIGS. 10A, 10C, and 10D) and cells harvested for luciferase assays 48 h post-transfection. […] FIGS. 10C and 10D show AR dose responses for the FR-α and PSA promoters, respectively.
(§4) FIG. 11 is a graph showing the time course of testosterone/AR action on FR-α and PSA promoters. HeLa cells were cotransfected with AR expression plasmid and either FR-α promoter-luciferase or PSA promoter-luciferase. Testosterone (10 nM) was introduced 48 h post-transfection and the cells harvested to assay luciferase activity at the indicated times.

PSA promoter = assay: PSA promoter-luciferase in HeLa cells transfected with AR; type: cell-based; conditions: 10 nM, introduced 48 h post-transfection
Method: as §3, §4

FR (α or β) = assay: FR induction by testosterone in FR-negative cell types; type: cell-based; conditions: results not shown
[9] = target: T1, Estrogen receptor alpha (ER) (UniProt P03372 P03372:1-595); assay: EMSA; HeLa NE present; tamoxifen but not ICI 182,780 abolished band; conditions: assayed with HeLa nuclear extract; label: 32P
T1 sequence (P03372 whole entry, one chain of several): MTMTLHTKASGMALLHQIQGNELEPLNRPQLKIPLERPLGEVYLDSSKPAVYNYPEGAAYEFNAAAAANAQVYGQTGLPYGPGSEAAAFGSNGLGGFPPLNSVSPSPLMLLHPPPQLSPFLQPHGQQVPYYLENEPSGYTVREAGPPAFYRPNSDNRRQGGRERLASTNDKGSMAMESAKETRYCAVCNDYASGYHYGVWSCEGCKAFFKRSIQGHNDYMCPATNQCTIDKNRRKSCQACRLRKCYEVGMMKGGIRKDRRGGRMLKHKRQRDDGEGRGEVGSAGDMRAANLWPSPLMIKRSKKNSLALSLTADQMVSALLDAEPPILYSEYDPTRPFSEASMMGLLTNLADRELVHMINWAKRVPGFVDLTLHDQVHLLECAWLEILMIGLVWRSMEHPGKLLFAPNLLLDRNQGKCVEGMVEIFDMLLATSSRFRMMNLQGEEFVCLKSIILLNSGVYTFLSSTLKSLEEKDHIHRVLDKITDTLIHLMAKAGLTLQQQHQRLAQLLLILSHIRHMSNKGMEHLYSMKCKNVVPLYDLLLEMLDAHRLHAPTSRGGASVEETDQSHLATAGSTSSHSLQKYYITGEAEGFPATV

[10] = target: T1, Estrogen receptor alpha (ER); assay: EMSA; no ER shift with consensus Sp1; HeLa NE present; conditions: assayed with HeLa nuclear extract; label: 32P
[11] = target: T1, Estrogen receptor alpha (ER); assay: EMSA; HeLa NE present; E2 increased band, tamoxifen and ICI 182,780 abolished it; 100-fold unlabelled ERE blocked; room temperature, 50 mM KCl, 0.5 mM MgCl2; conditions: assayed with HeLa nuclear extract; label: 32P

## C[C@@H]1C[C@H]2[C@@H]3CCC4=CC(=O)C=C[C@]4(C)[C@@]3(F)[C@@H](O)C[C@]2(C)[C@@]1(O)C(=O)CO [Dex, dexamethasone]
GRE2e1b promoter
  time at which activation was shown: ≤ 3 h
FR-α promoter [1]
  concentration of optimal enhancement: 50 nM
  time at which enhancement began: > 48 h

## CC(/C=C/C(=O)NO)=C\[C@@H](C)C(=O)c1ccc(N(C)C)cc1 [TSA, trichostatin A]
FR-α [2]; 50 ng/ml TSA with testosterone 10 nM
  further enhancement of the testosterone/AR-dependent increase: ~4 fold
FR-α promoter [3]
  activation of the FR-α promoter by R5020: greatly potentiated

## CC/C(=C(\c1ccccc1)c1ccc(OCCN(C)C)cc1)c1ccccc1 [tamoxifen, Tamoxifen]
FR-α promoter [4]
  FR-α promoter activity after repression by ER: either partially or completely restored to the uninhibited values
FR-α [5]
  induction of endogenous FR-α expression: In no case did the inventor observe induction
FR-α promoter [6]; 6 h treatment, then compound withdrawn
  derepression of FR-α promoter after 6 h treatment and withdrawal: partially lost
FR-α promoter [6]; HeLa, ER co-transfected
  effect on FR-α promoter (ligand dose response): the repression was counteracted
FR-α promoter [6]; HeLa, ER co-transfected, 1 nM E2, pharmacologic concentrations of antiestrogen
  FR-α promoter activity after repression by ER: either partially or completely restored to the uninhibited values
FR-α promoter [6]; antiestrogen introduced 24 h after co-transfection
  reporter activity at the end of 48 h post-transfection: a doubling of the reporter activity
FR-α promoter [6]; antiestrogen introduced 24 h after transfection
  onset of activation of FR-α promoter: began within hours and progressively increased
FR-α promoter [6]; no ER co-transfected, HeLa and IGROV-1, results not shown
  FR-α promoter activity in the absence of ER: did not alter FR-α promoter activity
FR-α [7]
  FR-α expression in tumors: significant increase in FR-α expression

## C[C@]12CC[C@H]3[C@@H](CCC4=CC(=O)CC[C@@]43C)[C@@H]1CC[C@@H]2O [testosterone]
FR-α promoter [8]
  FR-α promoter activity: increased the promoter activity
FR-α promoter [8]; introduced 48 h post-transfection
  time at which activation was observed: 2 h
PSA promoter
  time at which activation was observed: 2 h
FR-α [2]; 10 nM for 3 days, AR transfected
  increase in fluorescence of the major peak (endogenous FR): approximately 7 fold
FR (α or β)
  induction of FR (α or β) expression: did not induce FR (α or β) expression

B1: consensus ERE probe (dsDNA)
DNA 1: GTCAGGTCACAGTGACCTGA
DNA 2: TCAGGTCACTGTGACCTGAC
[9]
  binding result: binds

B2: consensus Sp1 probe (dsDNA)
DNA 1: ATTCGATCGGGGCGGGGCGAG
DNA 2: CTCGCCCCGCCCCGATCGAAT
[10]
  binding result: no binding

B3: FR-alpha P4 promoter probe -89 to -50 (dsDNA)
DNA 1: GGAGATGGGGGCAGGGCTCTATCTGCCCCAGGCTTCCGTCC
DNA 2: GGACGGAAGCCTGGGGCAGATAGAGCCCTGCCCCCATCTCC
[11]
  binding result: binds
